Measured values taken from patent publication US10869846B2, “N-acetylcysteine amide (NAC amide) in the treatment of diseases and conditions associated with oxidative stress” (SENTIENT LIFESCIENCES, INC., priority 2005, dated 2020).

Tests used:
[1] = Wong et al. 1986; cited from earlier work
[2] = test system: PC12 cells; assay: LDH assay, glutamate cytotoxicity; format: cell-based; settings: 10 mM glutamate + 750 μM NAC amide, 24 hours; glutamate alone = 100%
Method: LDH assay: For the lactate dehydrogenase (LDH) assay, cells were plated at a density of 2.5×10^5 cells/well in a 24 well collagen-coated culture plate and, after 24 h; the medium was replaced with fresh DMEM medium containing the desired concentration of glutamate and NAC amide. After the desired incubation period, the LDH activity released was determined using the kit as described below. For the MTS assay, cells were plated at a density of 10^5 cells/well in a 24 well collagen-coated plate. At the end of the experiments, cell viability was assayed using the kit as described. The LDH activity assay was performed with the CytoTox96® Non-Radioactive Cytotoxicity Assay kit (Promega, Madison, Wis., USA), which quantitatively measured the activity of LDH, a stable cytosolic enzyme that is released upon cell lysis [Technical Bulletin No. 163, Promega]. […] Absorbance data were collected using a BMG microplate reader (BMG Labtechnologies, Inc., Durham, N.C., USA) at 490 nm. LDH leakage was expressed as the percentage (%) of the maximum LDH release in the cells treated with glutamate alone (100%), according to the formula: […]
To quantify the protection provided by NAC amide, PC12 cells were exposed to 10 mM glutamate in the presence of NAC amide for 24 hours, and then the amount of LDH released was measured using the LDH assay.

[3] = test system: PC12 cells; assay: GSH measurement in cells (NPM/HPLC); format: cell-based
Method: Cells were seeded at a density of 80,000 cells/cm^2 on poly-D-lysine coated (0.05 mg/ml) 75 cm^2 flasks (5 ml/flask) for GSH measurement. […] After the incubation period, cells were removed from the cultures and homogenized in serine borate buffer (100 mM Tris-HCl, 10 mM boric acid, 5 mM L-serine, 1 mM DETAPAC, pH 7.4). Twenty (20) μl of the diluted cell homogenate were added to 230 μl of serine borate buffer and 750 μl of NPM (1 mM in acetonitrile). The resulting solutions were incubated at room temperature for 5 min. The reaction was stopped by the addition of 5 μl of 2N HCl. The samples were then filtered through a 0.2 μm Acrodisc filter and injected onto the HPLC system.
[…] Values represent means.+−.SD. Statistically different values of *P<0.05 were determined, compared to control. **P<0.001 compared to glutamate-treated group. ***P<0.05 compared to glutamate-treated group.

[4] = test system: mice; assay: GSH and cysteine levels after administration to mice; format: in vivo; settings: 30 minutes after administration
[5] = test system: PC12 cells; assay: Cysteine levels in cells; format: cell-based; settings: NAC amide 750 μM, glutamate 10 mM, 24 h (FIG. 5)
Method: Cells were plated and grown for 24 hours, and then they were exposed to glutamate (10 mM) in the presence or absence of NAC amide (750 μM). Twenty-four hours later, the cells were harvested and cysteine levels were measured. Values represent means±SD. Statistically different values of *P<0.005 and **P<0.05 were determined, compared to control. ***P<0.05 compared to glutamate-treated group.
GSH measurement: Cellular levels of GSH were determined by using the method as described in Winters R. A. et al., Anal Biochem., 227(1):14-21, 1995. Cells were seeded at a density of 80,000 cells/cm^2 on poly-D-lysine coated (0.05 mg/ml) 75 cm^2 flasks (5 ml/flask) for GSH measurement. After 24 hours, the flasks were incubated with fresh medium containing glutamate (10 mM), or BSO (0.2 mM) or Glu+BSO+NAC amide (750 μM) at […] for another 24 h. After the incubation period, cells were removed from the cultures and homogenized in serine borate buffer (100 mM Tris-HCl, 10 mM boric acid, 5 mM L-serine, 1 mM DETAPAC, pH 7.4). Twenty (20) μl of the diluted cell homogenate were added to 230 μl of serine borate buffer and 750 μl of NPM (1 mM in acetonitrile). The resulting solutions were incubated at room temperature for 5 min. The reaction was stopped by the addition of 5 μl of 2N HCl. The samples were then filtered through a 0.2 μm Acrodisc filter and injected onto the HPLC system.

[6] = test system: PC12 cells; assay: Morphological assessment of glutamate toxicity; format: cell-based; settings: 10 mM glutamate, 750 μM NAC amide, 24 hours
Method: Cell culture and toxicity studies: Stock culture of PC12 cells, purchased from ATCC, were grown in 75 cm^2 tissue culture flasks in RPMI 1640, supplemented with 10% (v/v) heat-inactivated horse serum, and 5% (v/v) fetal bovine serum, to which 1% (v/v) penicillin and streptomycin were added. Cultures were maintained at 37° C. in a humidified atmosphere containing 5% CO2. The cells were passaged twice a week. Unless specified, all of the experiments were performed using Dulbecco's modified Eagle's medium (DMEM) as differentiation medium, supplemented with 0.5% (v/v) fetal bovine serum, 1% (v/v) penicillin and streptomycin. PC12 cells were plated at a density of 25×10^3 cells/well in a 24-well, collagen-coated plate for morphological assessment. The plate was divided into five groups in triplicate: 1) control: no glutamate, no NAC amide; 2) Nerve Growth Factor (NGF) control: NGF (100 ng/ml), no glutamate, no NAC amide; 3) NAC amide only: NGF (100 ng/ml), no glutamate, NAC amide (750 μM); 4) glutamate only: NGF (100 ng/ml), glutamate (10 mM), no NAC amide; and 5) Glu+NAC amide: NGF (100 ng/ml), glutamate (10 mM), NAC amide (750 μM). […]
Glutamate toxicity was evaluated by 1) morphological assessment of PC12 cells in the presence of glutamate; 2) measuring the amount of LDH released in the media 24 h after glutamate exposure; and 3) measuring cell viability using the MTS assay. […]

[7] = test system: red blood cells (RBCs); settings: Grinberg et al. 2005; cited from earlier work

Compound	time increased hepatic GSH levels are maintained [1]	% LDH released [2] [%]	increase of PC12 cell GSH level compared to the control group ([3]; 750 μM, 24 hour treatment)	GSH Levels ([3]; GLU (10 mM) + BSO (0.2 mM) + NAC amide (750 μM)) [nM/mg protein]	GSH Levels ([3]; GLU (10 mM) + NAC amide (750 μM)) [nM/mg protein]	GSH Levels ([3]; NAC amide (750 μM) alone) [nM/mg protein]	cells' GSH levels maintained in GSH synthesis-arrested cells ([3]; glutamate + BSO (0.2 mM)) [%]	GSH and cysteine levels [4]	cysteine levels compared to the control group [5]	protection from glutamate toxicity (neurite morphology, light microscopy) [6]	BuOOH-induced intracellular oxidation in red blood cells [7]
CC(=O)N[C@@H](CS)C(=O)O [NAC, N-acetylcysteine]	at least 6 hours										
N-acetylcysteine amide [NAC amide]		28.9	two fold	30 ± 4.3	88 ± 11.0	112 ± 17.8	56	Increases	increase	slightly decreasing the bleb formation on neurites	inhibit
